“Also recorded” adds a separate entry of the source.
Columns and labels:
[1] = Water solubility (statement); assay type: physicochemical
[2] = tested on: ERK MAP kinase phosphorylation in KMS11 and OPM2 cells; experiment: FGF2-mediated ERK MAP kinase phosphorylation by western blotting in MM cell lines; assay type: cell-based; details: NF449 one hour before FGF2, FIG. 3a
Description: FIG. 3, in accordance with an embodiment herein, depicts 4,4′,4″,4′″-[carbonyl-bis[imino-5,1,3-benzenetriyl bis-{carbonylimino}]]tetrakis-{benzene-1,3-disulfonic acid} inhibits FGF2/FGFR3 signaling in MM cell lines OPM2 and KMS11. (a) KMS11 and OPM2 cells were serum-starved for 12 hours, treated with 4,4′,4″,4′″-[carbonyl-bis[imino-5,1,3-benzenetriyl bis-{carbonylimino}]]tetrakis-{benzene-1,3-disulfonic acid} for one hour before the treatment with FGF2 and the levels of ERK MAP kinase phosphorylation were determined by western blotting with the P-ERK1/2(Thr^202/Tyr^204) antibody. As a loading control, the membranes were reprobed with antibody recognizing ERK regardless of its phosphorylation. […] (b) The OPM2 cells were serum starved for 12 hours, pre-treated with 4,4′,4″,4′″-[carbonyl-bis[imino-5,1,3-benzenetriyl bis-{carbonylimino}]]tetrakis-{benzene-1,3-disulfonic acid} for one hour before FGF2 treatment, and analyzed for CCL3 and CCL4 expression by real-time RT-PCR as described herein. The results are expressed as the fold difference relative to control (2^ddCt). […]
Since MM represents another area of pathological FGFR3 signaling in viva, the inventors evaluated whether NF449 inhibits FGFR3 signaling in KMS11 and OPM2 MM cell lines. […]

[3] = tested on: limb growth and size of cultured embryos; experiment: Embryo limb culture; details: 30 μM; embryos cultured for six (6) days; FIG. 8
From the text: FIG. 8, in accordance with an embodiment herein, depicts embryos cultured for six (6) days.

[4] = target: T1, full-length FLAG-tagged K650E-FGFR3 (Homo sapiens, UniProt P22607, K650E); experiment: Cell-free K650E-FGFR3 kinase assay with STAT1 as substrate; assay type: biochemical; details: immunopurified from CHO cells; FIG. 6
T1 construct: using full-length FLAG-tagged K650E-FGFR3 that was expressed in CHO cells; made in house; host or cells: CHO cells (transient transfection, anti-FLAG immunoprecipitation)
T1 sequence (P22607 23-806 K650E): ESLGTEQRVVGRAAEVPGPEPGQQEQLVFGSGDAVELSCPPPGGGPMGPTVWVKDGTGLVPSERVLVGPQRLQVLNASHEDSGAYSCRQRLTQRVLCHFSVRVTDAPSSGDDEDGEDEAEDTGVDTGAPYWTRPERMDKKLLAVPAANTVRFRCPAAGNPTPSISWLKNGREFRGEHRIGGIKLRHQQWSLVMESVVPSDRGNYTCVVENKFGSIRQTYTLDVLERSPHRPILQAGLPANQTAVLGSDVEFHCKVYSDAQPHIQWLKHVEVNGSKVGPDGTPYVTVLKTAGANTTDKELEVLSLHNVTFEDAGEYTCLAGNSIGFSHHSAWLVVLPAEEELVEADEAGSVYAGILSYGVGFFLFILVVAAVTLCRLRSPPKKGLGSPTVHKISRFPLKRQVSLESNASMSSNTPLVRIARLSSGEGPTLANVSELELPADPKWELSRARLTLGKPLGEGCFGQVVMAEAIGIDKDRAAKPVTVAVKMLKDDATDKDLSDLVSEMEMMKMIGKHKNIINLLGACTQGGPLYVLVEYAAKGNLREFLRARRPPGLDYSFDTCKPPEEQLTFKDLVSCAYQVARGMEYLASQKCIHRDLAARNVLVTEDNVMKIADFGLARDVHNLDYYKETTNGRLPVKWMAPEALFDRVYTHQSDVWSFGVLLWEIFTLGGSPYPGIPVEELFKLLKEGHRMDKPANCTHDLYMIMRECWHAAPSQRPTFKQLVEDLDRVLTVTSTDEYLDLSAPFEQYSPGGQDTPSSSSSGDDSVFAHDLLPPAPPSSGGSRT
Description: FIG. 6, in accordance with an embodiment herein, depicts 4,4′,4″,4′″-[carbonyl-bis[imino-5,1,3-benzenetriyl bis-{carbonylimino}]]tetrakis-{benzene-1,3-disulfonic acid} inhibits K650E-FGFR3 in a kinase assay. Cell-free K650E-FGFR3 kinase assays were carried-out using full-length FLAG-tagged K650E-FGFR3 that was expressed in CHO cells, purified by immunoprecipitation with FLAG antibody and subjected to a kinase reaction with recombinant STAT1 as a substrate and 4,4′,4″,4′″-[carbonyl-bis[imino-5,1,3-benzenetriyl bis-{carbonylimino}]]tetrakis-{benzene-1,3-disulfonic acid} added to the kinase reaction. Cells transfected with plasmid encoding green fluorescent protein (GFP) serve as a negative control for the immunoprecipitation. […]
OPM2 and KMS11 cells were lysed in ice-cold immunoprecipitation buffer (50 mM Tris-HCl pH 7.4, 150 mM NaCl, 0.5% NP-40, 1 mM EDTA, 25 mM NaF) supplemented with proteinase inhibitors and 10 mM sodium orthovanadate. […] Western blotting signal was quantified by determining the integrated optical density (I.O.D.) of a given band using Scion Image software (Scion Corporation, Frederick, Mass.). […] FGFR3-mediated phosphorylation of STAT1 was detected by western blotting with P-STAT1^Y701 antibody (Cell Signaling). […]

Compound: O=C(Nc1cc(C(=O)Nc2ccc(S(=O)(=O)O)cc2S(=O)(=O)O)cc(C(=O)Nc2ccc(S(=O)(=O)O)cc2S(=O)(=O)O)c1)Nc1cc(C(=O)Nc2ccc(S(=O)(=O)O)cc2S(=O)(=O)O)cc(C(=O)Nc2ccc(S(=O)(=O)O)cc2S(=O)(=O)O)c1 [NF449, 4,4′,4″,4′″-[carbonyl-bis[imino-5,1,3-benzenetriylbis-{carbonylimino}]]tetrakis-{benzene-1,3-disulfonic acid}]
- water solubility [1]: water-soluble
- FGF2-mediated Thr202/Tyr204 phosphorylation of ERK [2]: almost completely blocked
- FGF2-mediated Thr202/Tyr204 phosphorylation of ERK ([2]; listed as 4,4′,4″,4′″-[carbonyl-bis[imino-5,1,3-benzenetriyl bis-{carbonylimino}]]tetrakis): inhibited
- limb growth and size [3]: greater limb growth and size
- effect on K650E-FGFR3 kinase activity (Y701 phosphorylation of STAT1) [4]: inhibitory effect; also recorded: inhibited K650E-FGFR3 kinase activity
